Laboratory results taken from the NIST ThermoML archive (doi:10.1016/j.jct.2005.09.004).

Columns and labels:
[1] = xn = mol fraction of the nth substance listed; details: for surface tension liquid-gas: Drop volume; for mass density: 101 kPa, Liquid
[2] = refractive index (Na D-line) (dimensionless); φn = volume fraction of the nth substance listed; details: 101 kPa, Liquid, Standard Abbe refractometry

C1CCCC1 [cyclopentane] + C1COCCO1
Details	mass density [kg/m3]	refractive index	surface tension liquid-gas [mN/m]
[1], 283.15 K, x2 = 0.0516	766.94	–	–
[1], 283.15 K, x2 = 0.0615	–	–	24.4
[1], 283.15 K, x2 = 0.095	777.38	–	–
[1], 283.15 K, x2 = 0.121	–	–	24.58
[1], 283.15 K, x2 = 0.1824	–	–	24.76
[1], 283.15 K, x2 = 0.1944	802.55	–	–
[1], 283.15 K, x2 = 0.2656	–	–	25.04
[1], 283.15 K, x2 = 0.2987	830.28	–	–
[1], 283.15 K, x2 = 0.3973	857.59	–	–
[1], 283.15 K, x2 = 0.4058	–	–	25.63
[1], 283.15 K, x2 = 0.499	886.71	–	–
[1], 283.15 K, x2 = 0.5313	–	–	26.4
[1], 283.15 K, x2 = 0.6003	916.64	–	–
[1], 283.15 K, x2 = 0.6376	–	–	27.35
[1], 283.15 K, x2 = 0.7063	949.05	–	–
[1], 283.15 K, x2 = 0.7264	–	–	28.44
[1], 283.15 K, x2 = 0.806	–	–	29.74
[1], 283.15 K, x2 = 0.8072	980.93	–	–
[1], 283.15 K, x2 = 0.902	–	–	31.92
[1], 283.15 K, x2 = 0.9076	1013.82	–	–
[1], 283.15 K, x2 = 0.9528	1029.04	–	–
[1], 283.15 K, x2 = 0.9642	–	–	33.79
[1], 298.15 K, x2 = 0.0488	751.07	–	–
[1], 298.15 K, x2 = 0.0615	–	–	22.37
[1], 298.15 K, x2 = 0.0945	762.02	–	–
[1], 298.15 K, x2 = 0.121	–	–	22.56
[1], 298.15 K, x2 = 0.1818	783.72	–	–
[1], 298.15 K, x2 = 0.1824	–	–	22.74
[1], 298.15 K, x2 = 0.2656	–	–	23.01
[1], 298.15 K, x2 = 0.2983	814.38	–	–
[1], 298.15 K, x2 = 0.3959	841.12	–	–
[1], 298.15 K, x2 = 0.4058	–	–	23.66
[1], 298.15 K, x2 = 0.4962	869.6	–	–
[1], 298.15 K, x2 = 0.5313	–	–	24.56
[1], 298.15 K, x2 = 0.6067	902	–	–
[1], 298.15 K, x2 = 0.6376	–	–	25.57
[1], 298.15 K, x2 = 0.7034	931.45	–	–
[1], 298.15 K, x2 = 0.7264	–	–	26.68
[1], 298.15 K, x2 = 0.806	–	–	27.93
[1], 298.15 K, x2 = 0.811	965.2	–	–
[1], 298.15 K, x2 = 0.902	–	–	30.03
[1], 298.15 K, x2 = 0.9025	995.13	–	–
[1], 298.15 K, x2 = 0.9506	1011.12	–	–
[1], 298.15 K, x2 = 0.9642	–	–	31.9
[1], 313.15 K, x2 = 0.0449	734.98	–	–
[1], 313.15 K, x2 = 0.0615	–	–	20.14
[1], 313.15 K, x2 = 0.094	746.73	–	–
[1], 313.15 K, x2 = 0.121	–	–	20.45
[1], 313.15 K, x2 = 0.1824	–	–	20.77
[1], 313.15 K, x2 = 0.195	771.73	–	–
[1], 313.15 K, x2 = 0.2656	–	–	21.15
[1], 313.15 K, x2 = 0.2962	798.13	–	–
[1], 313.15 K, x2 = 0.3969	825.52	–	–
[1], 313.15 K, x2 = 0.4058	–	–	21.83
[1], 313.15 K, x2 = 0.4983	854.12	–	–
[1], 313.15 K, x2 = 0.5313	–	–	22.62
[1], 313.15 K, x2 = 0.5994	883.66	–	–
[1], 313.15 K, x2 = 0.6376	–	–	23.59
[1], 313.15 K, x2 = 0.6987	913.64	–	–
[1], 313.15 K, x2 = 0.7264	–	–	24.72
[1], 313.15 K, x2 = 0.8026	946.08	–	–
[1], 313.15 K, x2 = 0.806	–	–	26.05
[1], 313.15 K, x2 = 0.902	–	–	28.24
[1], 313.15 K, x2 = 0.9066	979.72	–	–
[1], 313.15 K, x2 = 0.9482	993.49	–	–
[1], 313.15 K, x2 = 0.9642	–	–	30.03
[2], 283.15 K, φ2 = 0.0438	–	1.41192	–
[2], 283.15 K, φ2 = 0.087	–	1.41201	–
[2], 283.15 K, φ2 = 0.1787	–	1.41266	–
[2], 283.15 K, φ2 = 0.2781	–	1.41381	–
[2], 283.15 K, φ2 = 0.3694	–	1.41511	–
[2], 283.15 K, φ2 = 0.4754	–	1.41686	–
[2], 283.15 K, φ2 = 0.5928	–	1.41854	–
[2], 283.15 K, φ2 = 0.7068	–	1.4208	–
[2], 283.15 K, φ2 = 0.7975	–	1.42271	–
[2], 283.15 K, φ2 = 0.9083	–	1.42517	–
[2], 283.15 K, φ2 = 0.9568	–	1.42621	–
[2], 298.15 K, φ2 = 0.0401	–	1.40332	–
[2], 298.15 K, φ2 = 0.0979	–	1.40358	–
[2], 298.15 K, φ2 = 0.1873	–	1.4043	–
[2], 298.15 K, φ2 = 0.2827	–	1.40556	–
[2], 298.15 K, φ2 = 0.3727	–	1.40698	–
[2], 298.15 K, φ2 = 0.4709	–	1.40874	–
[2], 298.15 K, φ2 = 0.5703	–	1.41064	–
[2], 298.15 K, φ2 = 0.6847	–	1.41303	–
[2], 298.15 K, φ2 = 0.785	–	1.41517	–
[2], 298.15 K, φ2 = 0.8986	–	1.41772	–
[2], 298.15 K, φ2 = 0.9436	–	1.41867	–
[2], 313.15 K, φ2 = 0.0434	–	1.39455	–
[2], 313.15 K, φ2 = 0.0858	–	1.39477	–
[2], 313.15 K, φ2 = 0.181	–	1.3956	–
[2], 313.15 K, φ2 = 0.2747	–	1.39691	–
[2], 313.15 K, φ2 = 0.3702	–	1.3985	–
[2], 313.15 K, φ2 = 0.472	–	1.40052	–
[2], 313.15 K, φ2 = 0.5688	–	1.40259	–
[2], 313.15 K, φ2 = 0.6767	–	1.40502	–
[2], 313.15 K, φ2 = 0.7759	–	1.40729	–
[2], 313.15 K, φ2 = 0.8977	–	1.41018	–
[2], 313.15 K, φ2 = 0.933	–	1.41105	–
